# Measured values published in patent US20090099158A1, “TETRAHYDROISOQUINOLINE COMPOUNDS AS MODULATORS OF THE HISTAMINE H3 RECEPTOR” (priority 2007, published 2009).
# Target: T1, cloned human H3 receptors (Homo sapiens, UniProt Q9Y5N1)
# T1 construct: expressed in transfected cells; host or cells: SK-N-MC cells
# Assay: H3 Receptor Binding (Human)
# Settings: cloned human H3 receptors stably expressed in SK-N-MC cells; average of the results obtained
# Description: Binding of compounds to the cloned human H3 receptors, stably expressed in SK-N-MC cells, was performed as described by Barbier, A. J. et al. (Br. J. Pharmacol. 2004, 143(5), 649-661). Data for compounds tested in this assay are presented in Table 1 as an average of the results obtained.
# T1 sequence (Q9Y5N1 whole entry): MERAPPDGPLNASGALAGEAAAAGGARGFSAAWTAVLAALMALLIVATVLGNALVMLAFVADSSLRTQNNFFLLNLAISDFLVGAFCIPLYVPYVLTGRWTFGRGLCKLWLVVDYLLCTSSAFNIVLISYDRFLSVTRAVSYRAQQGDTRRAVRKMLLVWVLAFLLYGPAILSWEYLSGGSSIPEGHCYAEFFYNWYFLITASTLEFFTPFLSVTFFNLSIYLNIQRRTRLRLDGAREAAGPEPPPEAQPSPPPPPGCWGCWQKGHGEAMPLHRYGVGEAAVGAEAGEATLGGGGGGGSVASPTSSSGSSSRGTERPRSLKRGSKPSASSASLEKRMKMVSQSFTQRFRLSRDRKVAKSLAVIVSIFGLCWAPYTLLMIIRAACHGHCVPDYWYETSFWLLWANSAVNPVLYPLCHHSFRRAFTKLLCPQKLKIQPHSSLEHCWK
row,SMILES,Ki [nM]
1,"COc1cccc(C(=O)N2CCc3cc(C(=O)N4CCN5CCCCC5C4)ccc3C2)c1 (stereo not shown) [Example 93, [2-(3-Methoxy-benzoyl)-1,2,3,4-tetrahydro-isoquinolin-6-yl]-(octahydro-pyrido[1,2-a]pyrazin-2-yl)-methanone]",17
2,"CC(C)N1CCc2cc(C(=O)N3CCOCC3)ccc2C1 [Example 174, (2-Isopropyl-1,2,3,4-tetrahydro-isoquinolin-6-yl)-morpholin-4-yl-methanone]",2140
3,"Cc1ccc(C(=O)N2CCc3cc(C(=O)N4CCN(C(C)C)CC4)ccc3C2)cc1 [Example 109, (4-Isopropyl-piperazin-1-yl)-[2-(4-methyl-benzoyl)-1,2,3,4-tetrahydro-isoquinolin-6-yl]-methanone]",37
4,"O=C(C1CCCCC1)N1CCc2cc(CN3CCN4CCCCC4C3)ccc2C1 (stereo not shown) [Example 168, Cyclohexyl-[6-(octahydro-pyrido[1,2-a]pyrazin-2-ylmethyl)-3,4-dihydro-1H-isoquinolin-2-yl]-methanone]",13
5,"CN(C)c1cccc(C(=O)N2CCc3cc(C(=O)N4CCN(C5CCC5)CC4)ccc3C2)c1 [Example 116, [6-(4-Cyclobutyl-piperazine-1-carbonyl)-3,4-dihydro-1H-isoquinolin-2-yl]-(3-dimethylamino-phenyl)-methanone]",18
6,"O=C(c1ccc2c(c1)CCN(C(=O)c1ccc(O)cc1)C2)N1CCN(C2CCC2)CC1 [Example 123, [6-(4-Cyclobutyl-piperazine-1-carbonyl)-3,4-dihydro-1H-isoquinolin-2-yl]-(4-hydroxy-phenyl)-methanone]",16
7,"O=C(c1ccc2c(c1)CCN(C(=O)C1CCCCC1)C2)N1CC2CCN(C3CCC3)C2C1 (stereo not shown) [Example 165, (1-Cyclobutyl-hexahydro-pyrrolo[3,4-b]pyrrol-5-yl)-(2-cyclohexanecarbonyl-1,2,3,4-tetrahydro-isoquinolin-6-yl)-methanone]",300
8,"CCCN1CCc2cc(C(=O)N3CCOCC3)ccc2C1 [Example 180, Morpholin-4-yl-(2-propyl-1,2,3,4-tetrahydro-isoquinolin-6-yl)-methanone]",9000
9,"O=C(c1ccc2c(c1)CCN(C(=O)c1ccc(F)c(Cl)c1)C2)N1CCN(C2CCC2)CC1 [Example 128, [2-(3-Chloro-4-fluoro-benzoyl)-1,2,3,4-tetrahydro-isoquinolin-6-yl]-(4-cyclobutyl-piperazin-1-yl)-methanone]",19
10,"N#Cc1cccc(C(=O)N2CCc3cc(C(=O)N4CCN5CCCCC5C4)ccc3C2)c1 (stereo not shown) [Example 94, 3-[6-(Octahydro-pyrido[1,2-a]pyrazine-2-carbonyl)-3,4-dihydro-1H-isoquinoline-2-carbonyl]-benzonitrile]",22
11,"O=C(c1ccc2c(c1)CCN(Cc1ccc(Cl)cc1)C2)N1CCN(C2CC2)CC1 [Example 24, [2-(4-Chloro-benzyl)-1,2,3,4-tetrahydro-isoquinolin-6-yl]-(4-cyclopropyl-piperazin-1-yl)-methanone]",75
12,"O=C(c1cccc(F)c1)N1CCc2cc(C(=O)N3CCN4CCCCC4C3)ccc2C1 (stereo not shown) [Example 87, [2-(3-Fluoro-benzoyl)-1,2,3,4-tetrahydro-isoquinolin-6-yl]-(octahydro-pyrido[1,2-a]pyrazin-2-yl)-methanone]",23
13,"N#Cc1ccc(C(=O)N2CCc3cc(C(=O)N4CCN5CCCCC5C4)ccc3C2)cc1 (stereo not shown) [Example 95, 4-[6-(Octahydro-pyrido[1,2-a]pyrazine-2-carbonyl)-3,4-dihydro-1H-isoquinoline-2-carbonyl]-benzonitrile]",16
14,"O=C(c1ccc2c(c1)CCN(C(=O)c1ccccc1Cl)C2)N1CCN2CCCCC2C1 (stereo not shown) [Example 89, [2-(2-Chloro-benzoyl)-1,2,3,4-tetrahydro-isoquinolin-6-yl]-(octahydro-pyrido[1,2-a]pyrazin-2-yl)-methanone]",21
15,"CC(C)N1CCC(C(=O)N2CCc3cc(C(=O)N4CCOCC4)ccc3C2)CC1 [Example 149, [2-(1-Isopropyl-piperidine-4-carbonyl)-1,2,3,4-tetrahydro-isoquinolin-6-yl]-morpholin-4-yl-methanone]",109
16,"CCCS(=O)(=O)N1CCc2cc(C(=O)N3CCN(C4CCC4)CC3)ccc2C1 [Example 101, (4-Cyclobutyl-piperazin-1-yl)-[2-(propane-1-sulfonyl)-1,2,3,4-tetrahydro-isoquinolin-6-yl]-methanone]",34
17,"O=C(C1CCCCC1)N1CCc2cc(CN3CCC[C@H]3CN3CCCC3)ccc2C1 [Example 169, Cyclohexyl-[6-(2-pyrrolidin-1-ylmethyl-pyrrolidin-1-ylmethyl)-3,4-dihydro-1H-isoquinolin-2-yl]-methanone]",269
18,"O=C(C1CCCCC1)N1CCc2cc(CN3CCCCC3)ccc2C1 [Example 166, Cyclohexyl-(6-piperidin-1-ylmethyl-3,4-dihydro-1H-isoquinolin-2-yl)-methanone]",45
19,"O=C(c1ccc2c(c1)CCN(C(=O)c1cccc(F)c1)C2)N1CCN(C2CCC2)CC1 [Example 62, (4-Cyclobutyl-piperazin-1-yl)-[2-(3-fluoro-benzoyl)-1,2,3,4-tetrahydro-isoquinolin-6-yl]-methanone]",24
20,"O=C(c1ccc2c(c1)CCN(C(=O)c1ccc(Cl)cc1)C2)N1CCN(C2CCC2)CC1 [Example 105, [2-(4-Chloro-benzoyl)-1,2,3,4-tetrahydro-isoquinolin-6-yl]-(4-cyclobutyl-piperazin-1-yl)-methanone]",16
21,"CN1CCC(N(C)C(=O)c2ccc3c(c2)CCN(C(=O)C2CCCCC2)C3)C1 (stereo not shown) [Example 161, 2-Cyclohexanecarbonyl-1,2,3,4-tetrahydro-isoquinoline-6-carboxylic acid methyl-(1-methyl-pyrrolidin-3-yl)-amide]",421
22,"CC(C)N1CCc2cc(C(=O)N3CCC(C(C)(C)O)CC3)ccc2C1 [Example 178, [4-(1-Hydroxy-1-methyl-ethyl)-piperidin-1-yl]-(2-isopropyl-1,2,3,4-tetrahydro-isoquinolin-6-yl)-methanone]",3300
23,"O=C(c1ccc2c(c1)CCN(C1CCC1)C2)N1CCOCC1 [Example 186, (2-Cyclobutyl-1,2,3,4-tetrahydro-isoquinolin-6-yl)-morpholin-4-yl-methanone]",1800
24,"O=C(c1ccc2c(c1)CCN(C(=O)c1ccc(Cl)c(Cl)c1)C2)N1CCN(C2CCC2)CC1 [Example 114, (4-Cyclobutyl-piperazin-1-yl)-[2-(3,4-dichloro-benzoyl)-1,2,3,4-tetrahydro-isoquinolin-6-yl]-methanone]",13

# Further lines, results first:
row,Ki [nM],SMILES
1,14,"O=C(c1ccc2c(c1)CCN(C(=O)C1CC1)C2)N1CCN(C2CCC2)CC1 [Example 34, [6-(4-Cyclobutyl-piperazine-1-carbonyl)-3,4-dihydro-1H-isoquinolin-2-yl]-cyclopropyl-methanone]"
2,20,"COc1ccc(C(=O)N2CCc3cc(C(=O)N4CCN(C5CCC5)CC4)ccc3C2)cc1 [Example 112, (4-Cyclobutyl-piperazin-1-yl)-[2-(4-methoxy-benzoyl)-1,2,3,4-tetrahydro-isoquinolin-6-yl]-methanone]"
3,11,"O=C(c1ccc2c(c1)CCNC2)N1CCN(C2CCCC2)CC1 [Example 8, (4-Cyclopentyl-piperazin-1-yl)-(1,2,3,4-tetrahydro-isoquinolin-6-yl)-methanone]"
4,1,"O=C(c1ccc2c(c1)CN(C(=O)C1CCCCC1)CC2)N1CCCN(C2CCC2)CC1 [Example 38, [7-(4-Cyclobutyl-[1,4]diazepane-1-carbonyl)-3,4-dihydro-1H-isoquinolin-2-yl]-cyclohexyl-methanone]"
5,65,"N#Cc1ccc(C(=O)N2CCc3cc(C(=O)N4CCN(C5CCCCC5)CC4)ccc3C2)cc1 [Example 81, 4-[6-(4-Cyclohexyl-piperazine-1-carbonyl)-3,4-dihydro-1H-isoquinoline-2-carbonyl]-benzonitrile]"
6,165,"CC(C)(C)OC(=O)N1CCc2cc(C(=O)N3CCN(C4CCCCC4)CC3)ccc2C1 [Example 3, 6-(4-Cyclohexyl-piperazine-1-carbonyl)-3,4-dihydro-1H-isoquinoline-2-carboxylic acid tert-butyl ester]"
7,230,"CC(C)(C)OC(=O)N1CCc2cc(C(=O)N3CCN(C4CCCC4)CC3)ccc2C1 [Example 2, 6-(4-Cyclopentyl-piperazine-1-carbonyl)-3,4-dihydro-1H-isoquinoline-2-carboxylic acid tert-butyl ester]"
8,35,"CCS(=O)(=O)N1CCc2cc(C(=O)N3CCN(C4CCC4)CC3)ccc2C1 [Example 100, (4-Cyclobutyl-piperazin-1-yl)-(2-ethanesulfonyl-1,2,3,4-tetrahydro-isoquinolin-6-yl)-methanone]"
9,37,"O=C(c1ccc2c(c1)CCN(C(=O)C1CCCCC1)C2)N1CCN(C2CCCC2)CC1 [Example 159, Cyclohexyl-[6-(4-cyclopentyl-piperazine-1-carbonyl)-3,4-dihydro-1H-isoquinolin-2-yl]-methanone]"
10,180,"O=C(c1ccc2c(c1)CCN(C(=O)c1ccc(Cl)cc1)C2)N1CCN(C2CCCCC2)CC1 [Example 77, [2-(4-Chloro-benzoyl)-1,2,3,4-tetrahydro-isoquinolin-6-yl]-(4-cyclohexyl-piperazin-1-yl)-methanone]"
11,80,"O=C(c1ccc2c(c1)CCN(C(=O)c1ccccc1F)C2)N1CCN(C2CCCCC2)CC1 [Example 72, (4-Cyclohexyl-piperazin-1-yl)-[2-(2-fluoro-benzoyl)-1,2,3,4-tetrahydro-isoquinolin-6-yl]-methanone]"
12,100,"CC(C)(C)C(=O)N1CCc2cc(C(=O)N3CCN(C4CCCC4)CC3)ccc2C1 [Example 64, 1-[6-(4-Cyclopentyl-piperazine-1-carbonyl)-3,4-dihydro-1H-isoquinolin-2-yl]-2,2-dimethyl-propan-1-one]"
13,53,"O=C(c1ccc2c(c1)CCN(C(=O)c1ccc(F)cc1)C2)N1CCN(C2CCCC2)CC1 [Example 67, (4-Cyclopentyl-piperazin-1-yl)-[2-(4-fluoro-benzoyl)-1,2,3,4-tetrahydro-isoquinolin-6-yl]-methanone]"
